Test systems include 786-0 renal; A498 renal; MALME-3M melanoma; SF-268 CNS; SF-295 CNS; SF-539 CNS; SK-MEL-2 melanoma; SK-MEL-28 melanoma.
Holding throughout (experiment): growth of human tumour cells (NCI), 48 h

“And” between values parts separate entries of the source, which are not always exact repeats. Identical values can stand only once.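 48-hour exposure; five concentrations; linearly interpolated endpoints. GI50 marks 50% less growth. TGI denotes the concentration required for complete inhibition of growth.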

On to `Cc1ccc(N)cc1[As]=[As]c1cc(N)ccc1C` (stereo not drawn), for which the GI50 in the experiment on 786-0 renal is 1.64 µM; in the experiment on A498 renal it was 1.29 µM; with MALME-3M melanoma, 0.679 µM; in the experiment with SF-268 CNS, 1.56 µM; in the experiment on SF-295 CNS, 4.6 µM; in the experiment on SF-539 CNS, 1.39 µM. Further, the GI50 with SK-MEL-2 melanoma is 1.97 µM; in the experiment on SK-MEL-28 melanoma it was 1.39 µM. The TGI in the experiment on 786-0 renal stood at 3.03 µM; in the experiment with A498 renal it was 2.64 µM; in the experiment on MALME-3M melanoma, 2.03 µM; in the experiment on SF-268 CNS, 3.02 µM; in the experiment with SF-295 CNS, 12.3 µM; in the experiment on SF-539 CNS it was 2.76 µM. Further, the TGI amounted to 3.54 µM in the experiment with SK-MEL-2 melanoma and 2.83 µM in the experiment with SK-MEL-28 melanoma.

With `C#C[C@@]1(O)[C@@H](CO)O[C@@H](n2cc(Br)c3c(Cl)ccnc32)[C@@H]1O`, the GI50 was 1.68 µM in the experiment with 786-0 renal; 0.303 µM with A498 renal; 32.3 µM in the experiment with MALME-3M melanoma; 10.5 µM in the experiment on SF-268 CNS; 1.03 µM in the experiment with SF-295 CNS; 0.357 µM with SF-539 CNS. In addition, the results for the GI50 with SK-MEL-2 melanoma and in the experiment on SK-MEL-28 melanoma were 35.2 µM and above 100 µM, respectively. Moreover, the TGI with 786-0 renal is above 100 µM; in the experiment with A498 renal, 2.55 µM; with MALME-3M melanoma it was above 100 µM; in the experiment on SF-268 CNS, above 100 µM; in the experiment with SF-295 CNS it was above 100 µM; with SF-539 CNS, 11.1 µM. The TGI in the experiment on SK-MEL-2 melanoma and with SK-MEL-28 melanoma was above 100 µM each time.

Regarding `Cc1nc2sc(C(=O)Nc3cccc(Br)c3C)c(N)c2cc1C(O)c1ccccc1` (stereo not drawn), the GI50 with 786-0 renal is 0.0601 µM; in the experiment on A498 renal it was 0.0181 µM; with MALME-3M melanoma, 0.1 µM; with SF-268 CNS, 0.146 µM; in the experiment on SF-295 CNS it was 0.0335 µM; with SF-539 CNS, 0.0256 µM. The GI50 in the experiment with SK-MEL-2 melanoma is 0.249 µM; in the experiment with SK-MEL-28 melanoma, 1.51 µM. Besides, the TGI turned out to be 10.1 µM with 786-0 renal; 0.058 µM in the experiment with A498 renal; 20.5 µM in the experiment with MALME-3M melanoma; 13 µM in the experiment with SF-268 CNS; 6.64 µM in the experiment with SF-295 CNS; 0.0733 µM in the experiment with SF-539 CNS. Besides, the results for the TGI in the experiment on SK-MEL-2 melanoma and in the experiment on SK-MEL-28 melanoma were 15.7 µM and 22 µM, respectively.

For the compound `Cn1c(CCCC(=O)O)nc2cc(N(CCCl)CCCl)ccc21`, the GI50 in the experiment with 786-0 renal was above 80.9 µM; in the experiment with A498 renal, above 32.6 µM; in the experiment with MALME-3M melanoma it was 49.6 µM; with SF-268 CNS, 68.5 µM; in the experiment with SF-295 CNS, above 64.4 µM; with SF-539 CNS, 65.1 µM. Moreover, the GI50 in the experiment on SK-MEL-2 melanoma and in the experiment with SK-MEL-28 melanoma was above 100 µM throughout. The TGI in the experiment on 786-0 renal was above 100 µM; with A498 renal, above 75 µM; in the experiment on MALME-3M melanoma it was above 100 µM; in the experiment with SF-268 CNS it was above 100 µM; with SF-295 CNS, above 100 µM; in the experiment with SF-539 CNS, above 94.1 µM. Further, the TGI with SK-MEL-2 melanoma and in the experiment with SK-MEL-28 melanoma was above 100 µM each time.

On to `Cc1cc(O)ccc1C1=NN(c2ccc(S(N)(=O)=O)cc2)C(=O)CC1`, for which the GI50 in the experiment on 786-0 renal was 18.9 µM and 43.6 µM; in the experiment on A498 renal it was 9.08 µM and 77.2 µM; in the experiment with SF-268 CNS it was 10.1 µM and 25.5 µM; in the experiment with SF-295 CNS, 2.21 µM and 4.82 µM; in the experiment on SF-539 CNS, 6.66 µM and 19.4 µM; in the experiment on SK-MEL-2 melanoma, 16.8 µM and 10.4 µM. Also, the GI50 with SK-MEL-28 melanoma was 25.7 µM and > 100 µM. Further, the TGI in the experiment on 786-0 renal is 50 µM and > 100 µM; in the experiment with A498 renal it was 50 µM and > 100 µM; in the experiment with MALME-3M melanoma it was 50 µM and 59.7 µM; with SF-268 CNS it was 50 µM and > 100 µM; in the experiment with SF-295 CNS it was 34.7 µM and 24.3 µM; in the experiment with SF-539 CNS it was 50 µM and > 100 µM. Also, the TGI is 50 µM and 77.7 µM with SK-MEL-2 melanoma; 50 µM and > 100 µM in the experiment on SK-MEL-28 melanoma.

With `O=C(Nc1ccncc1)C(=O)c1cn(S(=O)(=O)c2cccc(Cl)c2)c2ccccc12`, the GI50 with 786-0 renal was 7.94 µM; with A498 renal, 25.4 µM; in the experiment with MALME-3M melanoma, 18.7 µM; with SF-268 CNS it was 8.36 µM; in the experiment with SF-295 CNS, 2.92 µM; in the experiment with SF-539 CNS, 4.61 µM. Besides, the GI50 with SK-MEL-2 melanoma was 11 µM; with SK-MEL-28 melanoma, 10.2 µM. For the same compound, the TGI is 43.6 µM in the experiment with 786-0 renal; above 100 µM with A498 renal; above 100 µM in the experiment on MALME-3M melanoma; above 100 µM in the experiment on SF-268 CNS; 37.1 µM in the experiment with SF-295 CNS; 43.9 µM with SF-539 CNS. Moreover, the TGI with SK-MEL-2 melanoma is above 100 µM; in the experiment on SK-MEL-28 melanoma, 60.1 µM.

As to `CN(C)c1ccc(/C=C(\C#N)c2cc3ccccc3[nH]2)cc1`, the GI50 in the experiment on 786-0 renal is 2.52 µM; in the experiment on A498 renal it was 0.391 µM; in the experiment with MALME-3M melanoma it was 2.32 µM; in the experiment on SF-268 CNS, 2.52 µM; in the experiment on SF-295 CNS it was 0.61 µM; with SF-539 CNS it was 1.97 µM. For the same compound, the values for the GI50 with SK-MEL-2 melanoma and in the experiment with SK-MEL-28 melanoma were 0.454 µM and 2.63 µM, respectively. In addition, the TGI in the experiment on 786-0 renal was above 100 µM; in the experiment on A498 renal, 6.61 µM; with MALME-3M melanoma, above 100 µM; in the experiment on SF-268 CNS, above 100 µM; in the experiment with SF-295 CNS, 7.33 µM; with SF-539 CNS, 35.1 µM. The TGI with SK-MEL-2 melanoma and with SK-MEL-28 melanoma was above 100 µM throughout.

Regarding `CC1(C)C(N2CCOCC2)CS1(=O)=O` (stereo not drawn), the TGI in the experiment with 786-0 renal, with A498 renal, in the experiment on MALME-3M melanoma, in the experiment on SF-268 CNS, with SF-295 CNS and in the experiment with SF-539 CNS was above 10 µM each time. The TGI in the experiment with SK-MEL-2 melanoma and in the experiment on SK-MEL-28 melanoma was above 10 µM throughout.

Consider `O=C(Oc1ccccc1)N(c1ccccc1)c1ccccc1`, for which the GI50 with 786-0 renal was 26.2 µM; in the experiment with A498 renal, 10.4 µM; with MALME-3M melanoma, 25 µM; in the experiment on SF-268 CNS, 33.1 µM; in the experiment with SF-295 CNS it was 18.8 µM; in the experiment with SF-539 CNS, 30.4 µM. Also, the GI50 in the experiment on SK-MEL-2 melanoma was 30.6 µM. Further, the TGI with 786-0 renal was 83.4 µM; in the experiment on A498 renal, 62.7 µM; in the experiment with MALME-3M melanoma it was 91.4 µM; in the experiment with SF-268 CNS it was above 100 µM; in the experiment with SF-295 CNS, 58.7 µM; with SF-539 CNS, above 100 µM. In the experiment on SK-MEL-2 melanoma, this compound yielded a TGI above 100 µM.

The values above are taken from PubChem BioAssay (NCI).
